No end group written: not given here.
Key:
[1] = Circular dichroism (CD) of ConMot peptide; format: physicochemical; conditions: 33 μM peptide, 20 mM Na-phosphate pH 7.2, 20°C, 190–300 nm, three scans, 1 mm light path
Method: A blank was measured with buffer. […] A blank with buffer only was subtracted.

MLH1-PMS2 = assay: Comparison of MMR restoration with theoretical binding curves of peptide to protein; parameters: species or system human; conditions: theoretical binding curves at 11.1 nM MLH1; not a direct binding measurement; read-out: KD whose theoretical fraction of peptide binding to a protein corresponds to the degree of MMR restoration
Method: Figure 4. Reaction of DNA mismatch repair to addition of ConMot peptide. (A) Nuclear extract of MLH1-proficient HEK293 cells was used for performing the DNA mismatch repair reaction. Four reactions were undertaken, with two reactions supplemented with either 7.5 μM or 75 μM ConMot-32 peptide. A negative control reaction was performed by omitting the 37°C repair incubation. (B) MMR reactions were performed with nuclear extract of MLH1-deficient HEK293T cells supplemented with extract of cells transfected either with wildtype MLH1-PMS2 (positive control) or with MLH1-ΔConMot-PMS2. […] (C) The concentration-dependence of the MMR-activating effect of the ConMot-32 peptide observed in (B) was measured over a concentration range from 1–75 μM. […] Into this diagram, the average MMR activities (and standard deviations) measured in >3 of the experiment exemplarily shown in C were introduced as bars at ConMot-32 peptide concentrations of 1, 2.5, 7.5, 18 and 75 μM.
We investigated the effect of the ConMot peptide more closely by titrating the required peptide concentrations for activation. We determined that the mismatch repair reactions performed in this study contained approximately 280 fmol MLH1 (Supplementary Figure S4A and B), which is in good agreement with previous quantifications of MLH1-PMS2 in cells and extracts ([96]). […]
B. Immunoblot band intensities were determined. […]

[2] = 33 μM peptide, 20 mM Na-phosphate pH 7.2, 25–95°C, detection at 222 nm
Method: For the CD analysis, 33 μM ConMot peptide was used in 20 mM Na-phosphate buffer pH 7.2, 20°C. Three scans were performed with 190–300 nm wavelength, using a 1 mm light path. A blank was measured with buffer. For the melting analysis, 33 μM ConMot peptide was used in 20 mM Na-phosphate buffer pH 7.2. Detection was at 222 nm, temperature was scanned from 25–95°C. A blank with buffer only was subtracted.

[3] = tested on: DNA mismatch repair reaction of MMR-proficient HEK293 cell extract; assay: MMR competition test with nuclear extract of MMR-proficient HEK293 cells; format: biochemical, human; conditions: up to 75 μM ConMot-32 peptide
Method: Mismatch repair activity was assessed as described in detail before ([79],[81]) (Supplementary Figure S3). […] Mismatched DNA plasmid substrate (Supplementary Figure S3) prepared according to previously published procedures ([81–83]) was added, and reactions in a final volume of 25 μl were incubated at 37°C for 15 min. Repair efficiency was scored by purifying the mismatched DNA plasmid from the reaction and assessing the fraction of homoduplex sequence by restriction digestion of the mismatched site using EcoRV. The substrate was additionally linearized with AseI.
For complementation assays with peptide, the indicated peptide(s) were used at stock concentrations of 50 or 500 μM in HEPES–KOH 20 mM pH 7.6 and supplemented to the MMR reactions. […]
Figure 4. […] (C) The concentration-dependence of the MMR-activating effect of the ConMot-32 peptide observed in (B) was measured over a concentration range from 1–75 μM. […] Into this diagram, the average MMR activities (and standard deviations) measured in >3 of the experiment exemplarily shown in C were introduced as bars at ConMot-32 peptide concentrations of 1, 2.5, 7.5, 18 and 75 μM. […]
In parallel, the single- strand nick is ligated. […] 40- 80% absolute repair, determined as signal intensities of the repair bands divided by sum of […]

SGSSDKVYAHQMVRTDSREQKLDAFLQPLSKP [ConMot-32]
secondary structure formation by circular dichroism [1]: Neither investigation provided evidence for secondary structure formation
Kd (MLH1-PMS2): ~7.5 µM
secondary structure formation by melting analysis [2]: Neither investigation provided evidence for secondary structure formation
interference with regular DNA mismatch repair ([3]; listed as ConMot peptide): did not detectably interfere
interference with regular DNA mismatch repair ([3]; listed as ConMot-peptide): not attenuated

— paper PMC10325900, “A conserved motif in the disordered linker of human MLH1 is vital for DNA mismatch repair and its function is diminished by a cancer family mutation” (Nucleic Acids Research, 2023)
